Literature values, collected in patent publication US20260183312A1, “A ROOM-TEMPERATURE STABLE, UNBUFFERED FORMULATION OF ROCURONIUM BROMIDE INJECTION FOR INTRAVENOUS ADMINISTRATION AND A METHOD THEREOF” (MAIVA PHARMA PRIVATE LIMITED, priority 2023, published 2026).

C=CC[N+]1([C@H]2C[C@H]3[C@@H]4CC[C@H]5C[C@H](O)[C@@H](N6CCOCC6)C[C@]5(C)[C@H]4CC[C@]3(C)[C@H]2OC(C)=O)CCCC1 [Rocuronium, Rocuronium bromide]
Patients with severe burning pain on administration: up to 80%
